Experimental data published in US20220241316A1, “25-HYDROXYCHOLESTEROL (25HC), CRYAB AGGREGATION INHIBITOR, IS A NOVEL SENOLYTIC” (Buck Institute for Research on Aging, priority 2019, published 2022).
“Also recorded” adds a separate entry of the source.

What was measured:
senescent cells = experiment: Evaluation of senolytic effects of 25HC, oxysterols and 25HC analogs in cell culture; format: cell-based; settings: cell type not stated
Text: Genetic knockdown of this gene kills senescent cells.
There are some commercially available analogs of 25HC such as oxysterols (Griffiths et al. (2019) Biochem Soc Trans., 47: 517-526).

CRYAB protein [1] = target: T1, CRYAB protein (Homo sapiens, UniProt P02511); experiment: Inhibition of CRYAB protein aggregation; settings: stated with reference to Example 1; no aggregation test described
T1 sequence (P02511 1-175): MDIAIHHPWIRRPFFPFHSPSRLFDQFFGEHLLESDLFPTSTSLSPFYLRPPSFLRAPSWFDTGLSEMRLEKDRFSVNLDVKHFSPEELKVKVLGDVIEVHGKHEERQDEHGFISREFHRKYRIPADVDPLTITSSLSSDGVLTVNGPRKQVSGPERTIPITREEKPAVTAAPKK

[2] = system: senescent human fetal lung fibroblast (IMR-90); experiment: Cell viability assay (Cell Counting Kit-8) on NS and SEN IMR-90 cells; format: cell-based; settings: treatment started immediately after removing DMSO/250 nM Doxo; 72 hrs; normalized to DMSO
Description: Panel A) Timeline for DMSO/250 nM Doxo treatment and early-time point timeline for 24(S)-HC and 27HC treatment on NS and SEN cells. 24(S)HC and 27HC treatment were started immediately after removing DMSO/Doxo. Panel B) and C) Cell viability assay were performed on NS and SEN cells treated with different concentrations of 24(S)HC and 27HC, respectively. 24(S)HC and 27HC treatment were done for 72 hrs. The cell viability was analyzed by Cell Counting Kit-8 according to the manufactures' protocol using Spectra Max 190 (Molecular Devices). The value was normalized to that of DMSO. (Mean+/−SE, n=3, *p<0.05, **p<0.01 and ***p<0.001 by student's t-test).

senescent mDFs = experiment: Cell viability assay on NS and SEN mDFs treated with 25HC; format: cell-based, mouse; settings: treatment 72 hrs
Description: (§1) Panel A) Timeline for DMSO/Doxo treatment and early-time point timeline for 25HC treatment on NS and SEN cells. 25HC treatment was started immediately after removing DMSO/Doxo. Panel B) Cell viability assay was performed on NS and SEN cells treated with different concentrations of 25HC. 25HC treatment was done for 72 hrs. (Mean+/−SD, n=3, *p<0.05, **p<0.01 vs 0 uM by student's t-test).
as §1, with “late-time” for “early-time”, “7 days” for “immediately”, “n=6, **p<0.01, ***p<0.001, **** p<0.0001,” for “n=3, *p<0.05, **p<0.01”

senescent FAPs = experiment: Cell viability assay on NS and SEN FAPs treated with 25HC; format: cell-based, mouse; settings: 25HC started immediately after removing DMSO/Doxo (early-time point); treatment total 5 days; normalized to 0 uM
Description: as §1, with “total 5 days. The value was normalized to that of 0 uM. The average value of 0 μM is expressed as 100% (Mean+/−SE,” for “72 hrs. (Mean+/−SD,”, “n=3,” for “n=3, *p<0.05,”, “and ***p<0.001” for “vs 0 uM”, “t-test vs NS).” for “t-test).”

CRYAB protein [3] = target: T1, CRYAB protein; settings: from Makley et al. (2015) / Xu et al. (2017); cited from earlier work
CRYAB mRNA [4] = experiment: qPCR of CRYAB mRNA in Doxo treated FAPs; format: cell-based, mouse; settings: 250 nM doxorubicin 24 hrs; normalized to β-actin, vs DMSO
Description: The cells were treated with 250 nM doxorubicin and incubated for 24 hrs (Day 0). The mRNA was extracted from DMSO treated NS or Doxo treated SEN FAPs at the indicated time points and quantified by qPCR. The amount of mRNA was normalized to the level of β-actin mRNA. The average value of DMSO is expressed as 1 (Mean+/−SE, n=3, **p<0.01 and ***p<0.001 by Dunnett's multiple comparisons test vs DMSO).

p16INK4a mRNA [5] = experiment: qPCR of p16INK4a mRNA in Doxo treated FAPs; format: cell-based, mouse; settings: 250 nM Doxo for 24 hours; normalized to β-actin, vs DMSO
Description: As shown, FAPs undergo senescence upon 250 nM of Doxo treatment for 24 hours (Day 0). The mRNA was extracted from DMSO treated NS or Doxo treated SEN FAPs at indicated time points and quantified by qPCR. The amount of mRNA was normalized to the level of β-actin. The graphs show the relative levels of p16INK4a mRNA for DMSO and Doxo treated samples. The average value of DMSO is expressed as 1 (Mean+/−SE, n=3, *p<0.05 by Dunnett's multiple comparisons test vs DMSO).

CRYAB mRNA [6] = experiment: qPCR of CRYAB mRNA in Doxo treated mDFs; format: cell-based, mouse; settings: Doxo treated SEN mDFs day 1, 5, 14; normalized to β-actin, vs DMSO
Description: (§2) Real-time quantitative PCR (qPCR) was performed on RNA samples isolated from DMSO treated NS mDF cells or Doxo treated SEN mDF cells at day 1, 5, and 14 after Doxo treatment. The amount of mRNA was normalized to the level of β-actin (see, e.g., Demaria et al. (2017) Cancer Discovery, 2: 165-176; and references cited therein). Relative levels of CRYAB mRNA for DMSO and Doxo treated mDFs was measured. The average value of DMSO is expressed as 1. (Mean+/−SE, n=4, *p<0.05, ***p<0.001 by Dunnett's multiple comparisons test vs DMSO).

p16INK4a mRNA [7] = experiment: qPCR of p16INK4a mRNA in Doxo treated mDFs; format: cell-based, mouse; settings: 250 nM Doxo for 24 hours; day 1, 5, 14; normalized to β-actin, vs DMSO
Description: as §2, with “As shown, mDFs undergo senescence upon 250 nM of Doxo treatment for 24 hours (Day 0). Real-time” for “Real-time”, “NS (Non-Senescent)” for “NS”, “SEN (Senescent)” for “SEN”, “p16INK4a” for “CRYAB”, “**p<0.01, ****p<0.0001” for “*p<0.05, ***p<0.001”

SMILES: C[C@@H](CCCC(C)(O)c1ccccc1)C1CCC2C3CC=C4C[C@H](O)CC[C@@]4(C)C3CC[C@]21C (relative stereo) [rel-(3R,10S,13S)-17-[(2S)-6-hydroxy-6-phenylheptan-2-yl]-10,13-dimethyl-2,3,4,7,8,9,10,11,12,13,14,15,16,17-tetradecahydro-1H-cyclopenta[a]phenanthren-3-ol]
- Senolytic effect (senescent cells): novel senolytics
- Inhibition of CRYAB protein aggregation (as asserted in the description) (CRYAB protein [1]): effective inhibitors of CRYAB protein aggregation

SMILES: C[C@H](CCCC(C)(C)O)[C@H]1CC[C@H]2[C@@H]3[C@H](O)C=C4C[C@@H](O)CC[C@]4(C)[C@H]3CC[C@]12C [7α,25-Dihydroxycholesterol]
- Senolytic effect (senescent cells): novel senolytics
- Inhibition of CRYAB protein aggregation (as asserted in the description) (CRYAB protein [1]): effective inhibitors of CRYAB protein aggregation

SMILES: CC(C)CCC[C@@H](C)[C@H]1CC[C@H]2[C@@H]3[C@H](O)C=C4C[C@@H](O)CC[C@]4(C)[C@H]3CC[C@]12C [7αHC, 7α-Hydroxycholesterol]
- Senolytic effect (senescent cells): novel senolytics
- Inhibition of CRYAB protein aggregation (as asserted in the description) (CRYAB protein [1]): effective inhibitors of CRYAB protein aggregation

SMILES: CC(C)CCC[C@@H](C)[C@H]1CC[C@H]2[C@@H]3[C@@H](O)C=C4C[C@@H](O)CC[C@]4(C)[C@H]3CC[C@]12C [7βHC, 7β-Hydroxycholesterol]
- Senolytic effect (senescent cells): novel senolytics
- Inhibition of CRYAB protein aggregation (as asserted in the description) (CRYAB protein [1]): effective inhibitors of CRYAB protein aggregation

SMILES: CC(C)CC[C@@H](O)[C@@H](C)[C@H]1CC[C@H]2[C@@H]3CC=C4C[C@@H](O)CC[C@]4(C)[C@H]3CC[C@]12C [22(R)HC, 22(R)-Hydroxycholesterol]
- Senolytic effect (senescent cells): novel senolytics
- Inhibition of CRYAB protein aggregation (as asserted in the description) (CRYAB protein [1]): effective inhibitors of CRYAB protein aggregation

SMILES: CC(C)[C@@H](O)CC[C@@H](C)[C@H]1CC[C@H]2[C@@H]3CC=C4C[C@@H](O)CC[C@]4(C)[C@H]3CC[C@]12C [24(S)HC, 24(S)-Hydroxycholesterol]
- Senolytic effect (senescent cells): novel senolytics
- Inhibition of CRYAB protein aggregation (as asserted in the description) (CRYAB protein [1]): effective inhibitor of CRYAB protein aggregation
- Cell viability of NS and SEN IMR-90 cells, early-time point [2]: specifically kill senescent human fetal lung fibroblast; also recorded: specifically kill senescent IMR-90 cells

SMILES: C[C@H](CCCC(C)(C)O)[C@H]1CC[C@H]2[C@@H]3CC=C4C[C@@H](O)CC[C@]4(C)[C@H]3CC[C@]12C [25HC, 25-hydroxycholesterol]
- Cell viability of NS and SEN mDFs, late-time point (senescent mDFs; 25HC started 7 days after removing DMSO/Doxo): specifically kills senescent mDFs at late-timepoint
- Cell viability of NS and SEN mDFs, early-time point (senescent mDFs; 25HC started immediately after removing DMSO/Doxo): specifically kills senescent mDFs at early-timepoint
- Cell viability of NS and SEN FAPs (senescent FAPs): specifically kills senescent FAPs
- Senolytic effect (senescent cells): novel senolytic agent
- Inhibition of CRYAB / CRYAB protein aggregation (literature) (CRYAB protein [3]): effective inhibitor of CRYAB
- Inhibition of CRYAB protein aggregation (as asserted in the description) (CRYAB protein [1]): effective inhibitor of CRYAB protein aggregation

SMILES: CC(=O)CCC[C@@H](C)[C@H]1CC[C@H]2[C@@H]3CC=C4C[C@@H](O)CC[C@]4(C)[C@H]3CC[C@]12C [27-Nor-25-ketocholesterol]
- Senolytic effect (senescent cells): novel senolytics
- Inhibition of CRYAB protein aggregation (as asserted in the description) (CRYAB protein [1]): effective inhibitors of CRYAB protein aggregation

SMILES: C[C@@H](CO)CCC[C@@H](C)[C@H]1CC[C@H]2[C@@H]3CC=C4C[C@@H](O)CC[C@]4(C)[C@H]3CC[C@]12C [27HC, 27-Hydroxycholesterol]
- Senolytic effect (senescent cells): novel senolytics
- Inhibition of CRYAB protein aggregation (as asserted in the description) (CRYAB protein [1]): effective inhibitor of CRYAB protein aggregation
- Cell viability of NS and SEN IMR-90 cells, early-time point [2]: specifically kill senescent human fetal lung fibroblast; also recorded: specifically kill senescent IMR-90 cells

SMILES: CC(CCCN(C)C)C1CCC2C3CC=C4C[C@@H](O)CC[C@]4(C)C3CC[C@]12C (stereo partly drawn) [(3S,10R,13R)-17-(5-(dimethylamino)pentan-2-yl)-10,13-dimethyl-2,3,4,7,8,9,10,11,12,13,14,15,16,17-tetradecahydro-1H-cyclopenta[a]phenanthren-3-ol]
- Senolytic effect (senescent cells): novel senolytics
- Inhibition of CRYAB protein aggregation (as asserted in the description) (CRYAB protein [1]): effective inhibitors of CRYAB protein aggregation

SMILES: C[C@H](CCC(=O)O)[C@H]1CCC2[C@@H]3CC=C4C[C@H](O)CC[C@]4(C)C3CC[C@@]21C (stereo partly drawn) [(3alpha,9xi,14xi)-3-hydroxychol-5-en-24-oic acid]
- Senolytic effect (senescent cells): novel senolytics
- Inhibition of CRYAB protein aggregation (as asserted in the description) (CRYAB protein [1]): effective inhibitors of CRYAB protein aggregation

SMILES: C=C1CC[C@@H](O)CC1=C/C=C1\CCC[C@]2(C)[C@@H]([C@H](C)CCCC(C)(C)O)CC[C@@H]12 [Calcifediol 25-Hydroxyvitamin D3, reference compound]
- Senolytic effect (senescent cells): novel senolytics
- Inhibition of CRYAB protein aggregation (as asserted in the description) (CRYAB protein [1]): effective inhibitors of CRYAB protein aggregation

SMILES: COc1cccc2c1C(=O)c1c(O)c3c(c(O)c1C2=O)C[C@@](O)(C(=O)CO)C[C@@H]3O[C@H]1C[C@H](N)[C@H](O)[C@H](C)O1 [Doxo, doxorubicin]
- Relative level of CRYAB mRNA in FAPs (CRYAB mRNA [4]): significantly increased
- Relative level of p16INK4a mRNA in FAPs (p16INK4a mRNA [5]): induced senescence
- Relative level of CRYAB mRNA in mDFs (CRYAB mRNA [6]): upregulated CRYAB
- Relative level of p16INK4a mRNA in mDFs (p16INK4a mRNA [7]): induces senescence marker, p16INK4a
